Laboratory results: US4101552A, “Novel lysergic acid amides and process for preparing same” (Richter Gedeon Vegyeszeti Gyar Rt., priority 1975, dated 1978)

Assays:
serotonin oedema = test: Antiserotonin effect in vivo: rat-sole oedema (serotonin oedema blocking)
blood pressure of cats = test: Antihypertensive effect: blood pressure of anaesthetized cats; type: in vivo, cat
Procedure: Antihypertensive effect
Method: the blood pressure of cats anaesthetized with
intraperitoneally administered 30 mg/kg of pento-
barbital was measured in the left femoral artery
by means of the Statham P 23 db manometer and re-
corded on Hellige polygraph. The compounds were
administered into the right femoral vein.
Number of animals: 2 to 5 per dose.

[1] = test system: alpha- or beta-sympatholytic, ganglion-blocking or adrenergic neuron-blocking action; test: Sympatholytic, ganglion-blocking and adrenergic neuron-blocking action; settings: in vivo
Procedure: (§1) It is characteristic of one of the compounds of the present invention and having a hypotensive action that when administered in intravenous doses of 0.1 to 0.5 mg/kg to cats and dogs in pentothal anaesthesia it provokes a permanent decrease of 20 to 60 mmHg in blood pressure (Table 3). […] It might therefore be assumed that the hypotensive effect of the compound according to the invention is the result of its inhibiting effect on the sympathetic cerebral centres. These properties are the most characteristic of the dihydro-lysergic-acid-(3'-/pyrrolid-2"-on-1"-yl/-propyl)-amide bimaleate (Example 1).

[2] = test system: catecholamine content of the organs; test: Catecholamine content of the organs; settings: in vivo
[3] = test system: hypertension produced by stimulation of the baroreceptors and the central vagus stump; test: Inhibition of hypertension produced by stimulation of the baroreceptors and the central vagus stump; settings: in vivo
Procedure: as §1

[4] = test system: acute hypertension produced by the infusion of angiotensin; test: Inhibition of acute hypertension produced by infusion of angiotensin; settings: in vivo
[5] = test system: renal circulation, cerebral blood-vessels, blood-vessels of other organs; test: Effect on renal circulation and blood-vessels of organs; settings: in vivo
Procedure: as §1

reserpine hypothermia = test: Antidepressant test: antagonization of reserpine hypothermia; type: in vivo; settings: 30 mg/kg, intraperitoneally
Procedure: Antidepressant effect (Δt, ° C) and acute toxicity
Antidepressant test: antagonization of reserpine hypothermia
Dose: 30 mg/kg, intraperitoneally
Δt, ° C: change in body temperature compared to that of
Description of the method: ASKEW, B.M., Life Sci. 10, 725

isolated rat uterus = test: Antiserotonin effect in vitro on isolated rat uterus; settings: read-out: In vitro ED50 (antiserotonin effect)
Source text: It is characteristic of the compound that its effect is well measurable even after oral administration, indicating its ready peroral absorption.
In vitro: on isolated rat uterus
Description of the method; GADDUM, J. H. and HAMMED, L. A.: […]

[6] = Acute toxicity: LD50 on mice after 24 hours; settings: mouse, in vivo
Procedure: Acute toxicity: LD50 on mice after 24 hours.
Description of the method: […], J.T.jr. and
WILCOXON, F.J., Pharmacol. exp.

[7] = po, rat-sole oedema, peroral, serotonin creatinine sulphate 5 μg per sole in 0.1 ml
[8] = sc, rat-sole oedema, subcutane, serotonin creatinine sulphate 5 μg per sole in 0.1 ml

Row | Compound | ED50 (serotonin oedema; [7]) | Antidepressant effect, Δt (change in body temperature compared to that of the control) (reserpine hypothermia) | ED50 (serotonin oedema; [8]) | IC50 (isolated rat uterus) | other results
1 | CC[C@@H](CO)NC(=O)[C@@H]1C=C2c3cccc4c3c(cn4C)C[C@H]2N(C)C1 (racemic) [Deseryl, N-[1-(hydroxymethyl)propyl]-1-methyl-d-/+/-lysergamide, reference compound] | 0.64 mg/kg |  |  |  | Serotonin oedema blocking effect ED50 (serotonin oedema; rat-sole oedema, subcutane, serotonin creatinine sulphate 5 μg per sole in 0.1 ml): 0/026
2 | CN1C[C@H](C(=O)N[C@]2(C)O[C@@]3(O)[C@@H]4CCCN4C(=O)[C@H](Cc4ccccc4)N3C2=O)C[C@@H]2c3cccc4[nH]cc(c34)C[C@H]21 [Dihydroergotamine, reference compound] |  |  |  |  | Decrease in blood pressure (blood pressure of cats; 0.2 mg/kg i.v.): -25 mmHg; Decrease in blood pressure, duration (blood pressure of cats; 0.2 mg/kg i.v.): 0.5 h
3 | CN1C[C@H](C(=O)NCCCN2CCCC2=O)C[C@@H]2c3cccc4[nH]cc(c34)C[C@H]21 [Example 1, 9,10-Dihydrolysergic-acid-(3'-/pyrrolid-2"-on-1"-yl/-propyl)-amide bimaleate] |  |  |  |  | alpha- or beta-sympatholytic, ganglion-blocking or adrenergic neuron-blocking action [1]: no alpha- or beta-sympatholytic, ganglion-blocking or adrenergic neuron-blocking action; catecholamine content of the organs [2]: does not alter the catecholamine content of the organs; inhibition of hypertension produced by stimulation of the baroreceptors and the central vagus stump [3]: inhibits hypertension produced by the stimulation of the baroreceptors and the central vagus stump; inhibition of acute hypertension produced by infusion of angiotensin [4]: inhibits acute hypertension produced by the infusion of angiotensin; effect on cerebral blood-vessels and blood-vessels of other organs [5]: does not cause a constriction of the cerebral blood-vessels or a substantial change in the blood-vessels of other organs; renal circulation [5]: tends to improve renal circulation
4 | CN1C[C@H](C(=O)NCCCN2CCCC2=O)C=C2c3cccc4[nH]cc(c34)C[C@H]21 [Example 2, Lysergic-acid-(3'-/pyrrolid-2"-on-1"-yl/-propyl)-amide bimaleate] |  | 3.5 °C |  |  | Decrease in blood pressure (blood pressure of cats; 0.5 mg/kg i.v.): -50 mmHg; Decrease in blood pressure, duration (blood pressure of cats; 0.5 mg/kg i.v.): 1.5 h
5 | CN1C[C@H](C(=O)NCCCN2CCCC2=O)C[C@@H]2c3cccc4c3c(cn4C)C[C@H]21 [Example 3, 1-Methyl-9,10-dihydrolysergic-acid(3'-/pyrrolid-2"-on-1"-yl/propyl)-amide bimaleate] | 1.5 mg/kg |  | 0.3 mg/kg | 5 ng/mL | Decrease in blood pressure (blood pressure of cats; 0.5 mg/kg i.v.): -30 mmHg; Decrease in blood pressure, duration (blood pressure of cats; 0.5 mg/kg i.v.): 2.0 h
6 | CN1C[C@H](C(=O)NC2=NCCS2)C[C@@H]2c3cccc4c3c(cn4C)C[C@H]21 [Example 4, 1-Methyl-9,10-dihydrolysergic-acid-(2'-thiazolin-2'-yl)-amide bimaleate] | 0.12 mg/kg | 4.1 °C | 0.022 mg/kg | 0.05 ng/mL | peroral efficacy (in words) (serotonin oedema; peroral): particularly favourable peroral efficacy; peroral efficacy relative to Deseryl (serotonin oedema; peroral, surpassing the efficacy of Deseryl): about 3.5 times; LD50 at 24 h ([6]; ip, intraperitoneally): 330 mg/kg; LD50 at 24 h ([6]; po, orally): 315 mg/kg
7 | CN1C[C@H](C(=O)NC2=NCCS2)C[C@@H]2c3cccc4[nH]cc(c34)C[C@H]21 [Example 5, 9,10-Dihydrolysergic-acid-(thiazolin-2'-yl)-amide bimaleate] | 3 mg/kg | 3.6 °C | 0.3 mg/kg | 500 ng/mL | 
8 | C=CCOCC(O)CNC(=O)[C@@H]1C=C2c3cccc4[nH]cc(c34)C[C@H]2N(C)C1 (stereo partly shown) [Example 6, Lysergic-acid-(3'-allyloxy-2'-oxy-propyl)-amide bimaleate] |  | 5.4 °C |  |  | LD50 at 24 h ([6]; ip, intraperitoneally): 110 mg/kg; LD50 at 24 h ([6]; po, orally): 205 mg/kg
9 | CN1C[C@H](C(=O)Nc2nccs2)C=C2c3cccc4[nH]cc(c34)C[C@H]21 [Example 7, Lysergic-acid-(thiazol-2'-yl)-amide bimaleate] |  | 8.0 °C |  |  | 
10 | CN1C[C@H](C(=O)Nc2nccs2)C[C@@H]2c3cccc4c3c(cn4C)C[C@H]21 [Example 9, 1-Methyl-9,10-dihydrolysergic-acid-(thiazol-2'-yl)-amide bimaleate] | 1 mg/kg | 4.7 °C | 0.03 mg/kg | 500 ng/mL | Decrease in blood pressure (blood pressure of cats; 1.0 mg/kg i.v.): -20 mmHg; Decrease in blood pressure, duration (blood pressure of cats; 1.0 mg/kg i.v.): 1.5 h
11 | CN1C[C@H](C(=O)Nc2cccc3ncccc23)C=C2c3cccc4[nH]cc(c34)C[C@H]21 [Example 10, Lysergic-acid-(quinolin-5-yl)-amide bimaleate] |  | 3.9 °C |  |  | 
12 | CN1C[C@H](C(=O)Nc2ccnn2-c2ccccc2)C=C2c3cccc4[nH]cc(c34)C[C@H]21 [Example 11, Lysergic-acid-(1'-phenyl-pyrazol-5'-yl)-amide bimaleate] |  | 2.9 °C |  |  | 
13 | Cc1ccc(NC(=O)[C@@H]2C=C3c4cccc5[nH]cc(c45)C[C@H]3N(C)C2)c(F)c1 [Example 12, Lysergic-acid-(2'-fluoro-4'-methyl-phenyl)-amide bimaleate] |  | 6.9 °C |  |  | LD50 at 24 h ([6]; ip, intraperitoneally): 30 mg/kg
14 | CSc1cccc(NC(=O)[C@@H]2C=C3c4cccc5[nH]cc(c45)C[C@H]3N(C)C2)c1 [Example 13, Lysergic-acid-(3'-methyl-mercapto)-anilide bimaleate] |  | 7.0 °C |  |  | 
15 | Cc1cc(O)ccc1NC(=O)[C@@H]1C[C@@H]2c3cccc4c3c(cn4C)C[C@H]2N(C)C1 [Example 14, 1-Methyl-9,10-dihydrolysergic-acid-(4'-m-cresyl)-amide bimaleate] | 3 mg/kg | 3.4 °C | 0.3 mg/kg | 0.5 ng/mL | 
